Experimental data reported in US9156845B2, “4-(substituted amino)-7H-pyrrolo[2,3-d] pyrimidines as LRRK2 inhibitors” (Pfizer Inc., priority 2012, dated 2015).

Assays:
mutant G2019S LRRK2 = mutant G2019S LRRK2 (Homo sapiens (Human), UniProt Q5S007, G2019S); assay: LRRK2 Lantha Screen kinase assay, mutant enzyme; assay type: biochemical; details: geometric mean of 2-5 determinations unless otherwise indicated (a: >=6 determinations; b: single determination)
[1] = molecular target: GST-tagged truncated LRRK2 (Homo sapiens (Human), UniProt Q5S007); assay: LRRK2 Lantha Screen kinase assay; assay type: biochemical; details: geometric mean of 2-5 determinations unless otherwise indicated (a: >=6 determinations; b: single determination); read-out: LRRK2 WT IC50
Chain of GST-tagged truncated LRRK2 (Q5S007 970-2527): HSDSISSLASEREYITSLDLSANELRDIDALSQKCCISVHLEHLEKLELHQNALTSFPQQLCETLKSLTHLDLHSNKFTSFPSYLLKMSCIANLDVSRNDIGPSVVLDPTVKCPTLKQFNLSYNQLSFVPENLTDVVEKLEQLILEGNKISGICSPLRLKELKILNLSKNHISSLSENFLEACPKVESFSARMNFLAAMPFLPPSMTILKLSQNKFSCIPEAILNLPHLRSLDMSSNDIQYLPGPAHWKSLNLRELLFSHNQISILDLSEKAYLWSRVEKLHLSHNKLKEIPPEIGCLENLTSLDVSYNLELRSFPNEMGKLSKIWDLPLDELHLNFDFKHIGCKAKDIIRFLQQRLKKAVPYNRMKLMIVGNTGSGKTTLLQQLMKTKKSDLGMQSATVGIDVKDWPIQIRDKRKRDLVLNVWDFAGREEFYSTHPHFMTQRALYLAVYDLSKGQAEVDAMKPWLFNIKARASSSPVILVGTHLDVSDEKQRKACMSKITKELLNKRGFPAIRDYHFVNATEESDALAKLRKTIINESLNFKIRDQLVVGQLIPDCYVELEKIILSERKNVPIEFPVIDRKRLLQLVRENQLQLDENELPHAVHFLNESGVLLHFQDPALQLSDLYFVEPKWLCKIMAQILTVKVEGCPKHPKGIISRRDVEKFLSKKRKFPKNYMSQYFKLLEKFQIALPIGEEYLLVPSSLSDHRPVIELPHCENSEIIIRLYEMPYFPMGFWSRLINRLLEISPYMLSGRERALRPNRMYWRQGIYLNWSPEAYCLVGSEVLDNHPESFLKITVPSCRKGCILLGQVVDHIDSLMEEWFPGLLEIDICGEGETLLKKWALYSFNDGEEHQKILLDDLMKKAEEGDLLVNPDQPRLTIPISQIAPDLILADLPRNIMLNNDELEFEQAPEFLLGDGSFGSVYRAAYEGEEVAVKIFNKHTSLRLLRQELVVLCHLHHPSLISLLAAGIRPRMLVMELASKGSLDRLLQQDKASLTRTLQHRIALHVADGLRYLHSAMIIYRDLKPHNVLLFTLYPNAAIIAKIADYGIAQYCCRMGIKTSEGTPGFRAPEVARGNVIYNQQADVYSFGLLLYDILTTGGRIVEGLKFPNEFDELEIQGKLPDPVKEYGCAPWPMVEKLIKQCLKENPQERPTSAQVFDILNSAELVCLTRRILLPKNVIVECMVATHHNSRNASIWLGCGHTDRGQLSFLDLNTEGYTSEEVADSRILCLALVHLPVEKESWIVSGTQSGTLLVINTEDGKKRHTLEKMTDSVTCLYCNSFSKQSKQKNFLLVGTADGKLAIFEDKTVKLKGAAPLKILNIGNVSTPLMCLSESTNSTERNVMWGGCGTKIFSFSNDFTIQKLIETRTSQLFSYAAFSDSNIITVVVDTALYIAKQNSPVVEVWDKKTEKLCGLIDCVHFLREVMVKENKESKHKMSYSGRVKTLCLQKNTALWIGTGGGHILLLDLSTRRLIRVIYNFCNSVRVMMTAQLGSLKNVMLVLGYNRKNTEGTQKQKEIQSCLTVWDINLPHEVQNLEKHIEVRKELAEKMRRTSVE

Chain of mutant G2019S LRRK2 (Q5S007 970-2527 G2019S): as the sequence (Q5S007 970-2527) above, with G1050S counted along it

Compound	IC50 (mutant G2019S LRRK2)	IC50 [1]
OC1CCCN(c2ncnc3[nH]cc(-c4cccc(F)c4)c23)C1 (centres unmarked) [Example 156, 1-[5-(3-fluorophenyl)-7H-pyrrolo[2,3-d]pyrimidin-4-yl]piperidin-3-ol]	86 nM	57 nM
COc1ccc(F)cc1-c1c[nH]c2ncnc(N3CCOC(c4noc(C)n4)C3)c12 (centres unmarked) [Example 157, 5-(5-fluoro-2-methoxyphenyl)-4-[2-(5-methyl-1,2,4-oxadiazol-3-yl)morpholin-4-yl]-7H-pyrrolo[2,3-d]pyrimidine]	46 nM	44 nM
N#Cc1cccc(-c2c[nH]c3ncnc(N4CCC(F)CC4)c23)c1F [Example 158, 2-fluoro-3-[4-(4-fluoropiperidin-1-yl)-7H-pyrrolo[2,3-d]pyrimidin-5-yl]benzonitrile]	86 nM	18 nM
COc1ccccc1-c1c[nH]c2ncnc(N3CCC(F)CC3)c12 [Example 159, 4-(4-fluoropiperidin-1-yl)-5-(2-methoxyphenyl)-7H-pyrrolo[2,3-d]pyrimidine]	74 nM	67 nM
COc1cc(F)cc(-c2c[nH]c3ncnc(N4CCC(F)CC4)c23)c1 [Example 160, 5-(3-fluoro-5-methoxyphenyl)-4-(4-fluoropiperidin-1-yl)-7H-pyrrolo[2,3-d]pyrimidine]	96 nM	84 nM
Cc1cncc(-c2c[nH]c3ncnc(N4CCCC(O)C4)c23)c1 (centres unmarked) [Example 162, 1-[5-(5-methylpyridin-3-yl)-7H-pyrrolo[2,3-d]pyrimidin-4-yl]piperidin-3-ol]	67 nM	36 nM
COc1ccc(F)cc1-c1c[nH]c2ncnc(N3CCC(F)CC3)c12 [Example 163, 5-(5-fluoro-2-methoxyphenyl)-4-(4-fluoropiperidin-1-yl)-7H-pyrrolo[2,3-d]pyrimidine]	29 nM	25 nM
COc1cc(F)cc(-c2c[nH]c3ncnc(N4CCCC(O)C4)c23)c1 (centres unmarked) [Example 164, 1-[5-(3-fluoro-5-methoxyphenyl)-7H-pyrrolo[2,3-d]pyrimidin-4-yl]piperidin-3-ol]	38 nM	29 nM
COc1ccccc1-c1c[nH]c2ncnc(N3CCCC(O)C3)c12 (centres unmarked) [Example 165, 1-[5-(2-methoxyphenyl)-7H-pyrrolo[2,3-d]pyrimidin-4-yl]piperidin-3-ol]	62 nM	58 nM
Cc1noc(C2CN(c3ncnc4[nH]cc(-c5cccc(C#N)c5F)c34)CCO2)n1 (centres unmarked) [Example 166, 2-fluoro-3-{4-[2-(3-methyl-1,2,4-oxadiazol-5-yl)morpholin-4-yl]-7H-pyrrolo[2,3-d]pyrimidin-5-yl}benzonitrile]	272 nM	38 nM
COCC1CN(c2ncnc3[nH]cc(-c4cccc(C#N)c4F)c23)CCO1 (centres unmarked) [Example 167, 2-fluoro-3-{4-[2-(methoxymethyl)morpholin-4-yl]-7H-pyrrolo[2,3-d]pyrimidin-5-yl}benzonitrile]	372 nM	61 nM
COc1ccc(F)cc1-c1c[nH]c2ncnc(N3CCC3)c12 [Example 168, 4-(azetidin-1-yl)-5-(5-fluoro-2-methoxyphenyl)-7H-pyrrolo[2,3-d]pyrimidine]	75 nM	85 nM
Cc1cncc(-c2c[nH]c3ncnc(N4CCO[C@@H](C)C4)c23)c1 [Example 169, 4-[(2S)-2-methylmorpholin-4-yl]-5-(5-methylpyridin-3-yl)-7H-pyrrolo[2,3-d]pyrimidin]	280 nM	99 nM
COc1ccccc1-c1c[nH]c2ncnc(N(C)C)c12 [Example 173, 5-(2-methoxyphenyl)-N,N-dimethyl-7H-pyrrolo[2,3-d]pyrimidin-4-amine]	29 nM	43 nM
COc1ccccc1-c1c[nH]c2ncnc(N3CC[C@H](F)C3)c12 [Example 175, 4-[(3S)-3-fluoropyrrolidin-1-yl]-5-(2-methoxyphenyl)-7H-pyrrolo[2,3-d]pyrimidine]	54 nM	41 nM
COc1ccccc1-c1c[nH]c2ncnc(N3CCCC3)c12 [Example 176, 5-(2-methoxyphenyl)-4-(pyrrolidin-1-yl)-7H-pyrrolo[2,3-d]pyrimidine]	68 nM	54 nM
COc1cc(F)cc(-c2c[nH]c3ncnc(N(C)C)c23)c1 [Example 177, 5-(3-fluoro-5-methoxyphenyl)-N,N-dimethyl-7H-pyrrolo[2,3-d]pyrimidin-4-amine]	49 nM	41 nM
N#Cc1cccc(-c2c[nH]c3ncnc(N4CCCC(O)C4)c23)c1F (centres unmarked) [Example 178, 2-fluoro-3-[4-(3-hydroxypiperidin-1-yl)-7H-pyrrolo[2,3-d]pyrimidin-5-yl]benzonitrile]	42 nM	9 nM
COc1ccc(F)cc1-c1c[nH]c2ncnc(N3CCO[C@@H](C)C3)c12 [Example 179, 5-(5-fluoro-2-methoxyphenyl)-4-[(2S)-2-methylmorpholin-4-yl]-7H-pyrrolo[2,3-d]pyrimidine]	30 nM	19 nM
C[C@H]1CN(c2ncnc3[nH]cc(-c4cccc(C#N)c4F)c23)CCO1 [Example 180, 2-fluoro-3-{4-[(2S)-2-methylmorpholin-4-yl]-7H-pyrrolo[2,3-d]pyrimidin-5-yl}benzonitrile]	62 nM	10 nM
COc1ccc(F)cc1-c1c[nH]c2ncnc(N3CCCC(F)C3)c12 (centres unmarked) [Example 181, 5-(5-fluoro-2-methoxyphenyl)-4-(3-fluoropiperidin-1-yl)-7H-pyrrolo[2,3-d]pyrimidine]	24 nM	22 nM
C[C@H]1CN(c2ncnc3[nH]cc(-c4cccc(F)c4)c23)CCO1 [Example 182, 5-(3-fluorophenyl)-4-[(2S)-2-methylmorpholin-4-yl]-7H-pyrrolo[2,3-d]pyrimidine]	82 nM	38 nM
COc1ccc(F)cc1-c1c[nH]c2ncnc(N(C)C)c12 [Example 183, 5-(5-fluoro-2-methoxyphenyl)-N,N-dimethyl-7H-pyrrolo[2,3-d]pyrimidin-4-amine]	11 nM	13 nM
N#Cc1cccc(-c2c[nH]c3ncnc(N4CCCC4)c23)c1F [Example 184, 2-fluoro-3-[4-(pyrrolidin-1-yl)-7H-pyrrolo[2,3-d]pyrimidin-5-yl]benzonitrile]	82 nM	15 nM
COc1ccc(F)cc1-c1c[nH]c2ncnc(N3CC[C@H](F)C3)c12 [Example 185, 5-(5-fluoro-2-methoxyphenyl)-4-[(3S)-3-fluoropyrrolidin-1-yl]-7H-pyrrolo[2,3-d]pyrimidine]	23 nM	15 nM
Cc1nc(C2CN(c3ncnc4[nH]cc(-c5cccc(C#N)c5F)c34)CCO2)no1 (centres unmarked) [Example 186, 2-fluoro-3-{4-[2-(5-methyl-1,2,4-oxadiazol-3-yl)morpholin-4-yl]-7H-pyrrolo[2,3-d]pyrimidin-5-yl}benzonitrile]	90 nM	17 nM
Cc1ccnc(-c2c[nH]c3ncnc(N4CCOCC4)c23)c1 [Example 188, 5-(4-methylpyridin-2-yl)-4-(morpholin-4-yl)-7H-pyrrolo[2,3-d]pyrimidine]	90 nM	43 nM
COc1cccc(F)c1-c1c[nH]c2ncnc(N(C)C)c12 [Example 189, 5-(2-fluoro-6-methoxyphenyl)-N,N-dimethyl-7H-pyrrolo[2,3-d]pyrimidin-4-amine]	27 nM	40 nM
